Where “and” joins values, the source holds several entries; their conditions need not be identical. Equal values may be shown once. Read-outs that look alike come from different tables or passages of the source.
Legend:
[1] = Plasma pharmacokinetics after an oral dose of Example 2 in SD rats; assay type: in vivo, Sprague Dawley rats; settings: for bioavailability: oral
Description: An oral dose of Example 2 was formulated in a sterile solution of 50% water, 37.5% PEG 300, and 12.5% DMSO at 1.0 mg/mL. The dosing group consisted of three fasted male Sprague Dawley rats. At dosing, the animals weighed between 0.26 and 0.27 kg. For the oral dosing group, the formulated dose was administered via oral gavage at 5.0 mL/kg for a dose of 5.0 mg/kg. Non-compartmental pharmacokinetic analysis was performed on the plasma concentration-time data.

[2] = Plasma pharmacokinetics of Example 68 after IV infusion or PO dose in SD rats; assay type: in vivo
[3] = Example 68 in plasma, PO dose of Example 2 5 mg/kg, individual rats
[4] = male, Sprague Dawley, rat, plasma, po, 5 mg/kg, Example 68 in plasma, PO dose of Example 2 5 mg/kg, individual rats
[5] = male, Sprague Dawley, rat, plasma, po, 5 mg/kg, Example 68 in plasma, PO dose of Example 2 5 mg/kg, mean n=3
[6] = 30-minute IV infusion 1 mg/kg, individual rats
[7] = 30-minute IV infusion 1 mg/kg, mean n=3
[8] = PO dose 5 mg/kg, individual rats
[9] = SD, rat, plasma, po, 5 mg/kg, PO dose 5 mg/kg, mean n=3
[10] = Sprague-Dawley (SD), rat, plasma, iv, 1 mg/kg, 30-minute IV infusion 1 mg/kg, individual rats
[11] = Sprague-Dawley (SD), rat, plasma, iv, 1 mg/kg, 30-minute IV infusion 1 mg/kg, mean n=3

F (bioavailability) ([1]; Example 68 after PO Example 2 5 mg/kg, based on IV exposure of Example 68 at 1.0 mg/kg, individual rats): 20.2% and 17.4%
AUC0-24 h [1, 3]: 3.36 µM·h and 2.93 µM·h
AUCinf [1, 3]: 3.45 µM·h and 2.98 µM·h
Cmax [1, 3]: 2220 nM and 2450 nM
Tmax [1, 3]: 15 min
AUCinf ([1]; Example 68 in plasma, PO dose of Example 2 5 mg/kg, mean n=3): 3.25 µM·h
bioavailability ([1]; male, Sprague Dawley, rat, plasma, 5 mg/kg, Example 68 after PO Example 2 5 mg/kg, based on IV exposure of Example 68 at 1.0 mg/kg, individual rats, read-out: F (bioavailability)): 19.4%
bioavailability ([1]; male, Sprague Dawley, rat, plasma, 5 mg/kg, Example 68 after PO Example 2 5 mg/kg, based on IV exposure of Example 68 at 1.0 mg/kg, mean n=3, read-out: F (bioavailability)): 19 ± 1.4%
AUC(0-inf) [1, 4]: 3.32 µM·h
Cmax [1, 4]: 2120 nM
AUC(0-t) ([1]; male, Sprague Dawley, rat, plasma, po, 5 mg/kg, Example 68 in plasma, PO dose of Example 2 5 mg/kg, individual rats, read-out: AUC0-24 h): 3.15 µM·h
Tmax ([1]; male, Sprague Dawley, rat, plasma, po, 5 mg/kg, Example 68 in plasma, PO dose of Example 2 5 mg/kg, individual rats, read-out: Tmax): 30 min
AUC(0-inf) [1, 5]: 3.25 ± 0.242 µM·h
Cmax [1, 5]: 2270 ± 171 nM
AUC(0-t) ([1]; male, Sprague Dawley, rat, plasma, po, 5 mg/kg, Example 68 in plasma, PO dose of Example 2 5 mg/kg, mean n=3, read-out: AUC0-24 h): 3.14 µM·h
Tmax ([1]; male, Sprague Dawley, rat, plasma, po, 5 mg/kg, Example 68 in plasma, PO dose of Example 2 5 mg/kg, mean n=3, read-out: Tmax): 25.2 min
AUCinf [2, 6]: 3.11 µM·h and 3.46 µM·h
AUClast [2, 6]: 3.09 µM·h and 3.45 µM·h
CL (apparent systemic clearance) [2, 6]: 17.3 mL/min/kg and 15.5 mL/min/kg
Cmax [2, 6]: 5100 nM and 5350 nM
MRT (mean residence time) [2, 6]: 29.4 min and 26.4 min
Vss (volume of distribution) [2, 6]: 0.51 L/kg
t1/2 (terminal) [2, 6]: 64.8 min and 57.6 min
CL (apparent systemic clearance) [2, 7]: 15.8 mL/min/kg
t1/2 (terminal) [2, 7]: 61.2 min
AUCinf [2, 8]: 0.383 µM·h and 0.479 µM·h
AUClast [2, 8]: 0.334 µM·h and 0.396 µM·h
Cmax [2, 8]: 90.4 nM and 65 nM and 182 nM
F (oral bioavailability) [2, 8]: 1.9%
Tmax [2, 8]: 0.25 hr (2×) and 2.00 hr
AUC(0-inf) ([2]; SD, rat, plasma, po, 5 mg/kg, PO dose 5 mg/kg, individual rats): 0.485 µM·h
AUC(0-inf) [2, 9]: 0.449 µM·h
Cmax [2, 9]: 113 nM
AUC(0-inf) [2, 10]: 3.69 µM·h
AUC(0-t) [2, 10]: 3.68 µM·h
Cmax [2, 10]: 4940 nM
clearance ([2]; Sprague-Dawley (SD), rat, plasma, iv, 1 mg/kg, 30-minute IV infusion 1 mg/kg, individual rats, read-out: CL (apparent systemic clearance) (converted)): 14.5 mL/min/kg
MRT ([2]; Sprague-Dawley (SD), rat, plasma, iv, 1 mg/kg, 30-minute IV infusion 1 mg/kg, individual rats, read-out: MRT (mean residence time)): 28.2 min
Vd ([2]; Sprague-Dawley (SD), rat, plasma, iv, 1 mg/kg, 30-minute IV infusion 1 mg/kg, individual rats, read-out: Vss (volume of distribution)): 0.41 L/kg
half-life ([2]; Sprague-Dawley (SD), rat, plasma, iv, 1 mg/kg, 30-minute IV infusion 1 mg/kg, individual rats, read-out: t1/2 (terminal) (converted)): 60.6 min
AUC(0-inf) [2, 11]: 3.42 µM·h
AUC(0-t) [2, 11]: 3.4 µM·h
Cmax [2, 11]: 5130 nM
clearance ([2]; Sprague-Dawley (SD), rat, plasma, iv, 1 mg/kg, 30-minute IV infusion 1 mg/kg, mean n=3, read-out: CL (apparent systemic clearance) (converted)): 15.8 mL/min/kg
MRT ([2]; Sprague-Dawley (SD), rat, plasma, iv, 1 mg/kg, 30-minute IV infusion 1 mg/kg, mean n=3, read-out: MRT (mean residence time)): 28.2 ± 1.2 min
Vd ([2]; Sprague-Dawley (SD), rat, plasma, iv, 1 mg/kg, 30-minute IV infusion 1 mg/kg, mean n=3, read-out: Vss (volume of distribution)): 0.44 ± 0.06 L/kg
half-life ([2]; Sprague-Dawley (SD), rat, plasma, iv, 1 mg/kg, 30-minute IV infusion 1 mg/kg, mean n=3, read-out: t1/2 (terminal) (converted)): 61.2 ± 3.6 min
AUC(0-t) ([2]; Sprague-Dawley (SD), rat, plasma, po, 5 mg/kg, PO dose 5 mg/kg, individual rats): 0.429 µM·h
bioavailability ([2]; Sprague-Dawley (SD), rat, plasma, po, 5 mg/kg, PO dose 5 mg/kg, individual rats, read-out: F (oral bioavailability)): 2.5%
AUC(0-t) ([2]; Sprague-Dawley (SD), rat, plasma, po, 5 mg/kg, PO dose 5 mg/kg, mean n=3): 0.386 µM·h
bioavailability ([2]; Sprague-Dawley (SD), rat, plasma, po, 5 mg/kg, PO dose 5 mg/kg, mean n=3, read-out: F (oral bioavailability)): 2.3%
Tmax ([2]; Sprague-Dawley (SD), rat, plasma, po, 5 mg/kg, PO dose 5 mg/kg, mean n=3, read-out: Tmax): 49.8 min
SMILES: NC(=O)c1ccc(-c2ccc(-c3nn[nH]c3C(=O)O)cc2)cc1 [Example 68, 4-(4carbamoyl-[1,1biphenyl]-4-yl)-1H-1,2,3-triazole-5-carboxylic acid]
